Test results taken from publication PMC10408569, “Recruitment of hexahydroquinoline as anticancer scaffold targeting inhibition of wild and mutants EGFR (EGFR^WT, EGFR^T790M, and EGFR^L858R)” (Journal of Enzyme Inhibition and Medicinal Chemistry, 2023).

Experiments:
[1] = system: MOLT-4; assay: NCI-60 anticancer screening (SRB); assay type: cell-based; conditions: Homo sapiens; MOLT-4, leukemia; one dose 10 μM; read-out: Growth Inhibition Percentage (GI %)
[2] = system: RPMI-8226; assay: NCI-60 anticancer screening (SRB); assay type: cell-based; conditions: Homo sapiens; RPMI-8226, leukemia; one dose 10 μM; read-out: Growth Inhibition Percentage (GI %)
[3] = system: A549/ATCC; assay: NCI-60 anticancer screening (SRB); assay type: cell-based; conditions: Homo sapiens; A549/ATCC, NSC lung cancer; one dose 10 μM; read-out: Growth Inhibition Percentage (GI %)
[4] = system: EKVX; assay: NCI-60 anticancer screening (SRB); assay type: cell-based; conditions: Homo sapiens, NSC lung cancer, one dose 10 μM, read-out: Growth Inhibition Percentage (GI %)
[5] = system: HOP-62; assay: NCI-60 anticancer screening (SRB); assay type: cell-based; conditions: Homo sapiens; HOP-62, NSC lung cancer; one dose 10 μM; read-out: Growth Inhibition Percentage (GI %)
[6] = system: HOP-92; assay: NCI-60 anticancer screening (SRB); assay type: cell-based; conditions: Homo sapiens; HOP-92, NSC lung cancer; one dose 10 μM; read-out: Growth Inhibition Percentage (GI %)
[7] = system: NCI-H460; assay: NCI-60 anticancer screening (SRB); assay type: cell-based; conditions: Homo sapiens; NCI-H460, NSC lung cancer; one dose 10 μM; read-out: Growth Inhibition Percentage (GI %)
[8] = system: NCI-H522; assay: NCI-60 anticancer screening (SRB); assay type: cell-based; conditions: Homo sapiens; NCI-H522, NSC lung cancer; one dose 10 μM; read-out: Growth Inhibition Percentage (GI %)
[9] = system: HCC-2998; assay: NCI-60 anticancer screening (SRB); assay type: cell-based; conditions: Homo sapiens; HCC-2998, colon cancer; one dose 10 μM; read-out: Growth Inhibition Percentage (GI %)
[10] = system: HT29; assay: NCI-60 anticancer screening (SRB); assay type: cell-based; conditions: Homo sapiens, HT-29; HT29, colon cancer; one dose 10 μM; read-out: Growth Inhibition Percentage (GI %)
[11] = system: SF-295; assay: NCI-60 anticancer screening (SRB); assay type: cell-based; conditions: Homo sapiens; SF-295, CNS cancer; one dose 10 μM; read-out: Growth Inhibition Percentage (GI %)
[12] = system: SF-539; assay: NCI-60 anticancer screening (SRB); assay type: cell-based; conditions: Homo sapiens; SF-539, CNS cancer; one dose 10 μM; read-out: Growth Inhibition Percentage (GI %)
[13] = system: SNB-19; assay: NCI-60 anticancer screening (SRB); assay type: cell-based; conditions: Homo sapiens; SNB-19, CNS cancer; one dose 10 μM; read-out: Growth Inhibition Percentage (GI %)
[14] = system: MALME-3M; assay: NCI-60 anticancer screening (SRB); assay type: cell-based; conditions: Homo sapiens, melanoma, one dose 10 μM, read-out: Growth Inhibition Percentage (GI %)
[15] = system: MDA-MB-435; assay: NCI-60 anticancer screening (SRB); assay type: cell-based; conditions: Homo sapiens; MDA-MB-435, melanoma; one dose 10 μM; read-out: Growth Inhibition Percentage (GI %)
[16] = system: SK-MEL-28; assay: NCI-60 anticancer screening (SRB); assay type: cell-based; conditions: Homo sapiens; SK-MEL-28, melanoma; one dose 10 μM; read-out: Growth Inhibition Percentage (GI %)
[17] = system: SK-MEL-5; assay: NCI-60 anticancer screening (SRB); assay type: cell-based; conditions: Homo sapiens; SK-MEL-5, melanoma; one dose 10 μM; read-out: Growth Inhibition Percentage (GI %)
[18] = system: UACC-62; assay: NCI-60 anticancer screening (SRB); assay type: cell-based; conditions: Homo sapiens; UACC-62, melanoma; one dose 10 μM; read-out: Growth Inhibition Percentage (GI %)
[19] = system: OVCAR-3; assay: NCI-60 anticancer screening (SRB); assay type: cell-based; conditions: Homo sapiens; OVCAR-3, ovarian cancer; one dose 10 μM; read-out: Growth Inhibition Percentage (GI %)
[20] = system: OVCAR-4; assay: NCI-60 anticancer screening (SRB); assay type: cell-based; conditions: Homo sapiens; OVCAR-4, ovarian cancer; one dose 10 μM; read-out: Growth Inhibition Percentage (GI %)
[21] = system: OVCAR-8; assay: NCI-60 anticancer screening (SRB); assay type: cell-based; conditions: Homo sapiens; OVCAR-8, ovarian cancer; one dose 10 μM; read-out: Growth Inhibition Percentage (GI %)
[22] = system: ACHN; assay: NCI-60 anticancer screening (SRB); assay type: cell-based; conditions: Homo sapiens, renal cancer, one dose 10 μM, read-out: Growth Inhibition Percentage (GI %)
[23] = system: CAKI-1; assay: NCI-60 anticancer screening (SRB); assay type: cell-based; conditions: Homo sapiens; CAKI-1, renal cancer; one dose 10 μM; read-out: Growth Inhibition Percentage (GI %)
[24] = system: SN 12C; assay: NCI-60 anticancer screening (SRB); assay type: cell-based; conditions: Homo sapiens, SN12C; SN 12C, renal cancer; one dose 10 μM; read-out: Growth Inhibition Percentage (GI %)
[25] = system: UO-31; assay: NCI-60 anticancer screening (SRB); assay type: cell-based; conditions: Homo sapiens; UO-31, renal cancer; one dose 10 μM; read-out: Growth Inhibition Percentage (GI %)
[26] = system: DU-145; assay: NCI-60 anticancer screening (SRB); assay type: cell-based; conditions: Homo sapiens; DU-145, prostate cancer; one dose 10 μM; read-out: Growth Inhibition Percentage (GI %)
[27] = system: HS 578T; assay: NCI-60 anticancer screening (SRB); assay type: cell-based; conditions: Homo sapiens; HS 578T, breast cancer; one dose 10 μM; read-out: Growth Inhibition Percentage (GI %)

CCOC(=O)C1=C(N)N(c2ccc(Cl)cc2)C2=C(C(=O)CC(C)(C)C2)C1c1cccnc1 (racemic) [12f, (±)-Ethyl 2-amino-1–(4-chlorophenyl)-7,7-dimethyl-5-oxo-4-(pyridin-3-yl)-1,4,5,6,7,8-hexahydroquinoline-3-carboxylate]
inhibition at 10 µM [1]: < 10% | inhibition at 10 µM [2]: 12% | inhibition at 10 µM [3]: 15% | inhibition at 10 µM [4]: < 10% | inhibition at 10 µM [5]: < 10% | inhibition at 10 µM [6]: < 10% | inhibition at 10 µM [7]: < 10% | inhibition at 10 µM [8]: < 10% | inhibition at 10 µM [9]: < 10% | inhibition at 10 µM [10]: < 10% | inhibition at 10 µM [11]: < 10% | inhibition at 10 µM [12]: 12% | inhibition at 10 µM [13]: < 10% | inhibition at 10 µM [14]: < 10% | inhibition at 10 µM [15]: < 10% | inhibition at 10 µM [16]: < 10% | inhibition at 10 µM [17]: < 10% | inhibition at 10 µM [18]: < 10% | inhibition at 10 µM [19]: < 10% | inhibition at 10 µM [20]: 13% | inhibition at 10 µM [21]: < 10% | inhibition at 10 µM [22]: < 10% | inhibition at 10 µM [23]: < 10% | inhibition at 10 µM [24]: < 10% | inhibition at 10 µM [25]: 21% | inhibition at 10 µM [26]: < 10% | inhibition at 10 µM [27]: 16% | melting point: 261 to 263 °C
